Test results published in patent USRE46630E1, “Substituted 4-pyridones and their use as inhibitors of neutrophil elastase activity” (Boehringer Ingelheim International GmbH, priority 2012, dated 2017).
pIC50: −log10 of the molar value.

The compounds below were run against T1, Human neutrophil elastase (Homo sapiens, UniProt P08246) (assay: Human Neutrophil Elastase Assay). Conditions: Neutrophil Elastase assay; substrate MeOSuc-Ala-Ala-Pro-Val-AMC 250 μM; 15 min preincubation, 60 min incubation at room temperature; pH 7.5.
T1 construct: purchased Calbiochem 324681
T1 sequence (P08246 30-267): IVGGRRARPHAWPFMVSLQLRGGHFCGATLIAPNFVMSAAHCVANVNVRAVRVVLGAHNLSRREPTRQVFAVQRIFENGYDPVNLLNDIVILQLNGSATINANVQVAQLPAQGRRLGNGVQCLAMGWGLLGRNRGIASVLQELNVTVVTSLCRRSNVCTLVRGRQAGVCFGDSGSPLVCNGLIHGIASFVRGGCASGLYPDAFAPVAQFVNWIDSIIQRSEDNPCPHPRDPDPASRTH
Type: biochemical
Experimental: Human Neutrophil Elastase Assay
All other materials were of the highest grade commercially available.
The following buffers were used: Compound buffer: 100 mM Tris, 500 mM NaCl, adjusted to pH 7.5; Assay buffer: 100 mM Tris, 500 mM NaCl, adjusted to pH 7.5, containing 0.01% BSA.
Assay conditions: Test compounds were prediluted in DMSO and subsequently in compound buffer (5% DMSO final). […] After inactivation of the enzyme, fluorescence intensities were measured at 380 nm excitation and 460 nm emission wavelengths.
Each plate contains wells with a high value control (DMSO+enzyme+substrate) and wells with a low value control (DMSO+inactivated enzyme+substrate). […] Means of low values were taken as 0%, means of high values as 100%.

Structure (SMILES) | pIC50
COc1cc(-c2c(C)n(Cc3ccc(C#N)cc3)cc(C(=O)NCc3ccc(S(C)(=O)=O)cc3)c2=O)ccn1 [Example 6.6] | 7.41
COc1cncc(-c2c(C)n(Cc3ccc(C#N)cc3)cc(C(=O)NCc3ccc(S(C)(=O)=O)cc3)c2=O)c1 [Example 6.7] | 7.12
Cc1c(-c2cccc(Cl)c2)c(=O)c(C(=O)NCc2ccc(S(C)(=O)=O)cc2)cn1Cc1ccc(C#N)cc1 [Example 6.8] | > 9.00
Cc1c(-c2cncc(Cl)c2)c(=O)c(C(=O)NCc2ccc(S(C)(=O)=O)cc2)cn1Cc1ccc(C#N)cc1 [Example 6.9] | 8.42
Cc1c(-c2cccc(C(F)F)c2)c(=O)c(C(=O)NCc2ccc(S(C)(=O)=O)cc2)cn1Cc1ccc(C#N)cc1 [Example 6.10] | > 9.00
Cc1c(-c2ccnc(C(F)(F)F)c2)c(=O)c(C(=O)NCc2ccc(S(C)(=O)=O)cc2)cn1Cc1ccc(C#N)cc1 [Example 6.11] | > 9.00
Cc1c(-c2cc(C(F)(F)F)ccn2)c(=O)c(C(=O)NCc2ccc(S(C)(=O)=O)cc2)cn1Cc1ccc(C#N)cc1 [Example 6.12] | 8.42
Cc1c(-c2cncc(C(F)(F)F)c2)c(=O)c(C(=O)NCc2ccc(S(C)(=O)=O)cc2)cn1Cc1ccc(C#N)cc1 [Example 6.13] | 8.60
Cc1c(-c2cccc(C(F)(F)F)c2)c(=O)c(C(=O)NCCCN(C)C)cn1C(C)c1ccc(C#N)cc1 (stereo not drawn) [Example 7.1] | 8.39
Cc1noc(CNC(=O)c2cn(C(C)c3ccc(C#N)cc3)c(C)c(-c3cccc(C(F)(F)F)c3)c2=O)n1 (stereo not drawn) [Example 7.2] | 8.60
Cc1c(-c2cccc(C(F)(F)F)c2)c(=O)c(C(=O)NCCCS(C)(=O)=O)cn1C(C)c1ccc(C#N)cc1 (stereo not drawn) [Example 7.3] | 8.89
Cc1c(-c2cccc(C(F)(F)F)c2)c(=O)c(C(=O)NCCCO)cn1C(C)c1ccc(C#N)cc1 (stereo not drawn) [Example 7.4] | 8.74
Cc1nnc(CNC(=O)c2cn(C(C)c3ccc(C#N)cc3)c(C)c(-c3cccc(C(F)(F)F)c3)c2=O)o1 (stereo not drawn) [Example 7.5] | 8.85
Cc1c(-c2cccc(C(F)(F)F)c2)c(=O)c(C(=O)NCCS(C)(=O)=O)cn1C(C)c1ccc(C#N)cc1 (stereo not drawn) [Example 7.6] | 8.92
Cc1c(-c2cccc(C(F)(F)F)c2)c(=O)c(C(=O)NC2CNC(=O)C2)cn1C(C)c1ccc(C#N)cc1 (stereo not drawn) [Example 7.7] | 8.62
Cc1c(-c2cccc(C(F)(F)F)c2)c(=O)c(C(=O)NCC[S+](C)[O-])cn1C(C)c1ccc(C#N)cc1 (stereo not drawn) [Example 7.8] | 8.89
Cc1c(-c2cccc(C(F)(F)F)c2)c(=O)c(C(=O)NCCO)cn1C(C)c1ccc(C#N)cc1 (stereo not drawn) [Example 7.9] | 8.64
Cc1c(-c2cccc(C(F)(F)F)c2)c(=O)c(C(=O)NC2CCN(C)C2=O)cn1C(C)c1ccc(C#N)cc1 (stereo not drawn) [Example 7.10] | 8.70
Cc1c(-c2cccc(C(F)(F)F)c2)c(=O)c(C(=O)NC2CCNC2=O)cn1C(C)c1ccc(C#N)cc1 (stereo not drawn) [Example 7.12] | 8.82
Cc1c(-c2cccc(C(F)(F)F)c2)c(=O)c(C(=O)NCC(C)O)cn1C(C)c1ccc(C#N)cc1 (stereo not drawn) [Example 7.13] | 8.40
Cc1c(-c2cccc(C(F)(F)F)c2)c(=O)c(C(=O)NCC(C)O)cn1C(C)c1ccc(C#N)cc1 (stereo not drawn) [Example 7.14] | 8.33

Structure (SMILES) | pIC50
Cc1c(-c2cccc(C(F)(F)F)c2)c(=O)c(C(=O)NCC(C)(C)O)cn1C(C)c1ccc(C#N)cc1 (stereo not drawn) [Example 7.15] | 7.99
Cc1c(-c2cccc(C(F)(F)F)c2)c(=O)c(C(=O)NCC2(O)CC2)cn1C(C)c1ccc(C#N)cc1 (stereo not drawn) [Example 7.16] | 7.75
Cc1c(-c2cccc(C(F)(F)F)c2)c(=O)c(C(N)=O)cn1C(C)c1ccc(C#N)cc1 (stereo not drawn) [Example 7.17] | 7.73
Cc1c(-c2cccc(C(F)(F)F)c2)c(=O)c(C(=O)NCC#N)cn1C(C)c1ccc(C#N)cc1 (stereo not drawn) [Example 7.18] | > 9.00
Cc1c(-c2cccc(C(F)(F)F)c2)c(=O)c(C(=O)NC2COC2)cn1C(C)c1ccc(C#N)cc1 (stereo not drawn) [Example 7.19] | 8.39
Cc1c(-c2cccc(C(F)(F)F)c2)c(=O)c(C(=O)NCC(F)F)cn1C(C)c1ccc(C#N)cc1 (stereo not drawn) [Example 7.20] | 8.44
Cc1c(-c2cccc(C(F)F)c2)c(=O)c(C(=O)NCCCN(C)C)cn1C(C)c1ccc(C#N)cc1 (stereo not drawn) [Example 8.1] | 8.39
Cc1noc(CNC(=O)c2cn(C(C)c3ccc(C#N)cc3)c(C)c(-c3cccc(C(F)F)c3)c2=O)n1 (stereo not drawn) [Example 8.2] | 8.72
Cc1c(-c2cccc(C(F)F)c2)c(=O)c(C(=O)NCCCS(C)(=O)=O)cn1C(C)c1ccc(C#N)cc1 (stereo not drawn) [Example 8.3] | 8.89
Cc1c(-c2cccc(C(F)F)c2)c(=O)c(C(=O)NCCCO)cn1C(C)c1ccc(C#N)cc1 (stereo not drawn) [Example 8.4] | 8.74
Cc1nnc(CNC(=O)c2cn(C(C)c3ccc(C#N)cc3)c(C)c(-c3cccc(C(F)F)c3)c2=O)o1 (stereo not drawn) [Example 8.5] | 8.92
Cc1c(-c2cccc(C(F)F)c2)c(=O)c(C(=O)NC2CNC(=O)C2)cn1C(C)c1ccc(C#N)cc1 (stereo not drawn) [Example 8.7] | 8.77
Cc1c(-c2cccc(C(F)F)c2)c(=O)c(C(=O)NCC[S+](C)[O-])cn1C(C)c1ccc(C#N)cc1 (stereo not drawn) [Example 8.8] | 8.96
Cc1c(-c2cccc(C(F)F)c2)c(=O)c(C(=O)NCCO)cn1C(C)c1ccc(C#N)cc1 (stereo not drawn) [Example 8.9] | 8.72
Cc1c(-c2cccc(C(F)F)c2)c(=O)c(C(=O)NC2CCN(C)C2=O)cn1C(C)c1ccc(C#N)cc1 (stereo not drawn) [Example 8.10] | 8.80
Cc1c(-c2cccc(C(F)F)c2)c(=O)c(C(=O)NCCN(C)C)cn1C(C)c1ccc(C#N)cc1 (stereo not drawn) [Example 8.11] | 8.37
Cc1c(-c2cccc(C(F)F)c2)c(=O)c(C(=O)NC2CCNC2=O)cn1C(C)c1ccc(C#N)cc1 (stereo not drawn) [Example 8.12] | 8.85
Cc1c(-c2cccc(C(F)F)c2)c(=O)c(C(=O)NCCCCO)cn1C(C)c1ccc(C#N)cc1 (stereo not drawn) [Example 8.13] | 8.49
Cc1c(-c2cccc(C(F)F)c2)c(=O)c(C(=O)NCc2cnn(C)c2)cn1C(C)c1ccc(C#N)cc1 (stereo not drawn) [Example 8.14] | 8.44
Cc1c(-c2cccc(C(F)F)c2)c(=O)c(C(=O)NCCn2cccn2)cn1C(C)c1ccc(C#N)cc1 (stereo not drawn) [Example 8.15] | 8.36
Cc1c(-c2cccc(C(F)F)c2)c(=O)c(C(=O)NCc2ccnn2C)cn1C(C)c1ccc(C#N)cc1 (stereo not drawn) [Example 8.16] | 8.62

Structure (SMILES) | pIC50
Cc1c(-c2cccc(C(F)F)c2)c(=O)c(C(=O)NCc2ccno2)cn1C(C)c1ccc(C#N)cc1 (stereo not drawn) [Example 8.17] | 8.51
Cc1c(-c2cccc(C(F)F)c2)c(=O)c(C(=O)NCc2cccnc2)cn1C(C)c1ccc(C#N)cc1 (stereo not drawn) [Example 8.18] | 8.62
Cc1c(-c2cccc(C(F)F)c2)c(=O)c(C(=O)NCc2ccccn2)cn1C(C)c1ccc(C#N)cc1 (stereo not drawn) [Example 8.19] | 8.77
Cc1c(-c2cccc(C(F)F)c2)c(=O)c(C(=O)NCc2ccncc2)cn1C(C)c1ccc(C#N)cc1 (stereo not drawn) [Example 8.20] | 9.00
CCNC(=O)c1cn(C(C)c2ccc(C#N)cc2)c(C)c(-c2cccc(C(F)F)c2)c1=O (stereo not drawn) [Example 8.21] | 8.52
Cc1c(-c2cccc(C(F)F)c2)c(=O)c(C(N)=O)cn1C(C)c1ccc(C#N)cc1 (stereo not drawn) [Example 8.22] | 7.67
Cc1nc(CNC(=O)c2cn(C(C)c3ccc(C#N)cc3)c(C)c(-c3cccc(C(F)F)c3)c2=O)no1 (stereo not drawn) [Example 8.23] | 8.47
CCOCCNC(=O)c1cn(C(C)c2ccc(C#N)cc2)c(C)c(-c2cccc(C(F)F)c2)c1=O (stereo not drawn) [Example 8.24] | 8.77
COCCCNC(=O)c1cn(C(C)c2ccc(C#N)cc2)c(C)c(-c2cccc(C(F)F)c2)c1=O (stereo not drawn) [Example 8.25] | 8.74
COCCNC(=O)c1cn(C(C)c2ccc(C#N)cc2)c(C)c(-c2cccc(C(F)F)c2)c1=O (stereo not drawn) [Example 8.26] | 8.74
CCCNC(=O)c1cn(C(C)c2ccc(C#N)cc2)c(C)c(-c2cccc(C(F)F)c2)c1=O (stereo not drawn) [Example 8.27] | 8.52
Cc1c(-c2cccc(C(F)F)c2)c(=O)c(C(=O)NCc2cnn(C)c2)cn1C(C)c1ccc(C#N)cc1 (stereo not drawn) [Example 8.28] | 8.48
Cc1c(-c2ccnc(C(F)(F)F)c2)c(=O)c(C(=O)NCCCO)cn1C(C)c1ccc(C#N)cc1 (stereo not drawn) [Example 9.1] | 8.35
Cc1c(-c2ccnc(C(F)(F)F)c2)c(=O)c(C(=O)NCCS(C)(=O)=O)cn1C(C)c1ccc(C#N)cc1 (stereo not drawn) [Example 9.2] | 8.48
Cc1c(-c2ccnc(C(F)(F)F)c2)c(=O)c(C(=O)NCC[S+](C)[O-])cn1C(C)c1ccc(C#N)cc1 (stereo not drawn) [Example 9.3] | 8.41
Cc1c(-c2ccnc(C(F)(F)F)c2)c(=O)c(C(=O)NC2CCNC2=O)cn1C(C)c1ccc(C#N)cc1 (stereo not drawn) [Example 9.4] | 8.39
Cc1c(-c2ccnc(C(F)(F)F)c2)c(=O)c(C(=O)NCCCS(C)(=O)=O)cn1C(C)c1ccc(C#N)cc1 (stereo not drawn) [Example 9.6] | 8.49
Cc1nnc(CNC(=O)c2cn(C(C)c3ccc(C#N)cc3)c(C)c(-c3ccnc(C(F)(F)F)c3)c2=O)o1 (stereo not drawn) [Example 9.7] | 8.15
Cc1c(-c2ccnc(C(F)(F)F)c2)c(=O)c(C(=O)NC2CNC(=O)C2)cn1C(C)c1ccc(C#N)cc1 (stereo not drawn) [Example 9.8] | 8.38
Cc1c(-c2ccnc(C(F)(F)F)c2)c(=O)c(C(=O)NCCO)cn1C(C)c1ccc(C#N)cc1 (stereo not drawn) [Example 9.9] | 8.12
Cc1c(-c2ccnc(C(F)(F)F)c2)c(=O)c(C(=O)NCCN(C)C)cn1C(C)c1ccc(C#N)cc1 (stereo not drawn) [Example 9.10] | 7.91
